EC50, IC50 and AC50 data for four compounds are collected here from ChEMBL document CHEMBL1201862, “PubChem BioAssay data set” (2004).

The target of assay [1] is Peroxisome proliferator-activated receptor gamma/Nuclear receptor coactivator 1 (Homo sapiens, UniProt P37231). Format: functional.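 Further: agonist potency as compounds enhance coactivator SRC-1 recruitment to PPARgamma.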
In assay [2] the target is Peroxisome proliferator-activated receptor gamma/Nuclear receptor coactivator 2 (Homo sapiens, UniProt P37231). The assay is classed as functional.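 Further: agonist potency for raising coactivator recruitment to the receptor.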
Assay [3] addresses Mitogen-activated protein kinase 10 (Homo sapiens, UniProt P53779). The assay is described as follows: Dose response biochemical screening assay for inhibitors of c-Jun N-Terminal Kinase 3 (JNK3). [Related pubchem assays: 746 ].
The target of assay [4] is Peroxisome proliferator-activated receptor gamma/Nuclear receptor coactivator 3 (Homo sapiens, UniProt P37231). Format: functional.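 Further: agonist potency for raising coactivator recruitment to the receptor.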
Sequence of Peroxisome proliferator-activated receptor gamma/Nuclear receptor coactivator 3 (P37231 whole entry): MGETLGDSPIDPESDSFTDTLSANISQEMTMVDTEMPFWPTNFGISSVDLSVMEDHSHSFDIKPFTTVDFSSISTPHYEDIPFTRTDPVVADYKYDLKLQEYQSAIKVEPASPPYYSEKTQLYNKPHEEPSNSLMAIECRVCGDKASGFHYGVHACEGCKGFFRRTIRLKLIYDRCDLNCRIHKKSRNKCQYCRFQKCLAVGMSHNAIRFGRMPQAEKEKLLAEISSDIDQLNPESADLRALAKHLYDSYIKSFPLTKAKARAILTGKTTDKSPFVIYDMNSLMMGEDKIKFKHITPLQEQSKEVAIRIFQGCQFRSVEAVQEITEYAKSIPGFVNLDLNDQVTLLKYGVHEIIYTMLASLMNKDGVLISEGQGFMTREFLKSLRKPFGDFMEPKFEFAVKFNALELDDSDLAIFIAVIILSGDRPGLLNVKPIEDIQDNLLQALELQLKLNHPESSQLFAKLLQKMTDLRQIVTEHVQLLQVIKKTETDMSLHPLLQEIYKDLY
Sequence of Peroxisome proliferator-activated receptor gamma/Nuclear receptor coactivator 3 (Q9Y6Q9 whole entry, further chain): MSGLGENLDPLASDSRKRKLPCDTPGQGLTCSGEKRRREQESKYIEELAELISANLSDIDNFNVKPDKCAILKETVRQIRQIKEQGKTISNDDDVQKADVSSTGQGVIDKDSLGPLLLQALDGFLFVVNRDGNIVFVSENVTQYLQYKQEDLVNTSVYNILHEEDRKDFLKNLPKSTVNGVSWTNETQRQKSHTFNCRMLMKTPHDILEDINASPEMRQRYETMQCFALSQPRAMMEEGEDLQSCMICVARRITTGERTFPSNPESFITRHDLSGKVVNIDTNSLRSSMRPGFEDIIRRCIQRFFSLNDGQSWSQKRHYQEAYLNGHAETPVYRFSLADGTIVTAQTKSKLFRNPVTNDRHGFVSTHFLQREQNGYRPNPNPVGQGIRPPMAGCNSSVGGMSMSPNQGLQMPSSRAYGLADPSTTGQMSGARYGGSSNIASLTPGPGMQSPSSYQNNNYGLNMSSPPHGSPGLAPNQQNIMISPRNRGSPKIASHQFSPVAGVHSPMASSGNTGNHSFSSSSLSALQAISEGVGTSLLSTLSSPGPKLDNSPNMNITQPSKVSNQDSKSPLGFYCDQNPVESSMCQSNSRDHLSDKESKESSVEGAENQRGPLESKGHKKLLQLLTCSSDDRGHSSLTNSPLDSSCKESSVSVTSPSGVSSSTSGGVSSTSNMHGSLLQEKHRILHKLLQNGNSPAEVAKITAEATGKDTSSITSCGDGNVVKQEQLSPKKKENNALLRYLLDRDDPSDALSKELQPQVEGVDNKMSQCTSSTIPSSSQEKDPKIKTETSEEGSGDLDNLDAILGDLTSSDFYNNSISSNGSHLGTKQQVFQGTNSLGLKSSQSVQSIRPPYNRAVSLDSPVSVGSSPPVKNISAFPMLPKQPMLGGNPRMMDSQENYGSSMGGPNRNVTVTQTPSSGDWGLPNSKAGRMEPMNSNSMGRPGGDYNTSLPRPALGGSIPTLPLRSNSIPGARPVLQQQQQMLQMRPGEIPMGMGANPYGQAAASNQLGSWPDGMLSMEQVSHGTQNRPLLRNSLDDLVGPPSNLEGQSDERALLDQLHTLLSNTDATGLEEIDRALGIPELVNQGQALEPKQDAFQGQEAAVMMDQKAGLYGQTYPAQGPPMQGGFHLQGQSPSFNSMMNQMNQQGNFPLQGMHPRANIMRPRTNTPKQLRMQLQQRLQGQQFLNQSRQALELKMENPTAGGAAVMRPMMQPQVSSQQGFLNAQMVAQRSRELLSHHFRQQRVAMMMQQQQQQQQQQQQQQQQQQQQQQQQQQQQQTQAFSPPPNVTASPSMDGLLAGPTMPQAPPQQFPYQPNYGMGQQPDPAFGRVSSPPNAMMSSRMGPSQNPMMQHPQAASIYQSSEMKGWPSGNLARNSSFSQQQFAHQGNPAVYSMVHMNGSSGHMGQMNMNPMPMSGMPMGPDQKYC
Assay [5] deals with Solute carrier family 12 member 2/member 5 (Homo sapiens, UniProt P55011+Q9H2X9). The assay is described as follows: KCC2 and NKCC1 inhibition by rubidium flux, cell-based, NKCC1 counter-screen (AID 1734). The assay is classed as functional, HEK293. (Counterscreens check selectivity or assay interference.)
The target in assay [6] is T1, Estrogen receptor beta (Homo sapiens, UniProt Q92731). The assay is described as follows: ERβ–SRC-3 coactivator interaction inhibitors, confirmation, orthogonal assay, biochemical, ELISA, streptavidin-HRP readout (AID 1060). In general terms: An ELISA detects its analyte on a solid surface through an enzyme-linked reagent.
T1 sequence (Q92731 whole entry): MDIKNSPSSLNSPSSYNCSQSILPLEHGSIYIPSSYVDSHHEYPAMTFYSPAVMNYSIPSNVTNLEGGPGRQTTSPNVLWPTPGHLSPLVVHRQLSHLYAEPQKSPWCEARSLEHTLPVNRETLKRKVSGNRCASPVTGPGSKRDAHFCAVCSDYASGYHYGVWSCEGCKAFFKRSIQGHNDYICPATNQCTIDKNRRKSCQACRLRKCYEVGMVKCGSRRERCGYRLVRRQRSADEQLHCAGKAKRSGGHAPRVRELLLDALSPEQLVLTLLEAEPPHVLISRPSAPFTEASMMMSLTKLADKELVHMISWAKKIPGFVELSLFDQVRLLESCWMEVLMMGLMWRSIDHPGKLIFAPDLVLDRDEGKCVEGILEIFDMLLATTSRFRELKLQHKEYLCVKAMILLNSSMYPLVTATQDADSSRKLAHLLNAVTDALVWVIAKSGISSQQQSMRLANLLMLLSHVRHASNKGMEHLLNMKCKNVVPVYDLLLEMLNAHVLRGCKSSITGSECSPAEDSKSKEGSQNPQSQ
In assay [7] the target is T2, Tyrosine-protein phosphatase non-receptor type 7 (Homo sapiens, UniProt P35236).
T2 sequence (P35236 whole entry): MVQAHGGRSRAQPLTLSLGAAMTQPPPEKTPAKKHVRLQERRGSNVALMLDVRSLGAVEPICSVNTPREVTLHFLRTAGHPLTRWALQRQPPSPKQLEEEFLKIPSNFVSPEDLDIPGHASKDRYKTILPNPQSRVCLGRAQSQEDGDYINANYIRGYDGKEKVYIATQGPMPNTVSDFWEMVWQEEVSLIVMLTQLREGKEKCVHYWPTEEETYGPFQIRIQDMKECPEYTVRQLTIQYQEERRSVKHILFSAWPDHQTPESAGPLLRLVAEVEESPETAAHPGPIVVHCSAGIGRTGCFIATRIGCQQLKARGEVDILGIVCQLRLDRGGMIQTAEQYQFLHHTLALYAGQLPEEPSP
The assay is described as follows: inhibitors of human HePTP phosphatase, […], biochemical, absorbance, leukemia target (AID 521). The assay is classed as functional.

In assay [8] the target is T1, Estrogen receptor beta.
Assay [9] addresses Induced myeloid leukemia cell differentiation protein Mcl-1 (Homo sapiens, UniProt Q07820). The assay can be described thus: MCL1-BIM BH3 interaction inhibitors, dose response, biochemical, fluorescence polarization, BIM-BH3 peptide, 1536-well (AID 2217).
The target in assay [10] is Bcl-2-like protein 1 (Homo sapiens, UniProt Q07817). The assay is described as follows: BCL-XL inhibitors, dose response, selectivity assay for MCL1 inhibitor project, biochemical, fluorescence polarization, 1536-well (AID 2218).
Sequence of Bcl-2-like protein 1 (Q07817 whole entry): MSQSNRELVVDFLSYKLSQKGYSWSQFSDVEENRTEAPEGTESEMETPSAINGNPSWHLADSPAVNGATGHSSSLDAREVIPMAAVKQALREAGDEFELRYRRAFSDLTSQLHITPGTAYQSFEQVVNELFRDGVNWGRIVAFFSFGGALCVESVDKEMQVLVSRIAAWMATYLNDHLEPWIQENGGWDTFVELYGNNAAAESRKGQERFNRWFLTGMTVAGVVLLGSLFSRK
Assay [11] addresses T3, Bcl-2-like protein 10 (Homo sapiens, UniProt Q9HD36).
T3 sequence (Q9HD36 whole entry): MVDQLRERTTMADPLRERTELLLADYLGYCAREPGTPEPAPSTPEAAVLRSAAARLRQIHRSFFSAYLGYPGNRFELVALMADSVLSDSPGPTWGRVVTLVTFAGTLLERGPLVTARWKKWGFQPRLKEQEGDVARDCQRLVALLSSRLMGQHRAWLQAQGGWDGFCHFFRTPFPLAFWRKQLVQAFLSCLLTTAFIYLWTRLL
The assay can be described thus: displacers of TR3 peptide from Bcl-B, primary screen, selectivity assay for Bfl-1 inhibitor project, biochemical, fluorescence polarization, FITC-TR3 peptide (AID 748).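 Further: fluorescence polarization from a fluorescein-labelled TR3 peptide binding purified Bcl-B.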

In assay [12] the target is T4, Dual specificity protein phosphatase 6 (Rattus norvegicus, UniProt Q64346).
T4 sequence (Q64346 whole entry): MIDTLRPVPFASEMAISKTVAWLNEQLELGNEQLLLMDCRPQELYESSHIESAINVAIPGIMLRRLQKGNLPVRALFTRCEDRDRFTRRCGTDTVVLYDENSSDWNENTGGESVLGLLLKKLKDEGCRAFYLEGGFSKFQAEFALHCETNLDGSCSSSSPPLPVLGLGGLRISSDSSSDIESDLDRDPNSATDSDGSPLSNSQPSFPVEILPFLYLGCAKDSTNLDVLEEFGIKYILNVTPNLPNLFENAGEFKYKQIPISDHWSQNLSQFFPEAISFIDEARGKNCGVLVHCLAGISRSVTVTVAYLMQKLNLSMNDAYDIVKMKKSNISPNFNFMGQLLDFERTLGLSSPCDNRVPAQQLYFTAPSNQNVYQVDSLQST
The assay can be described thus: MKP-3 phosphatase inhibitors, primary screen, biochemical, rat enzyme, in vitro (AID 425).

Assay [13] addresses T5, Bcl-2-related protein A1 (Mus musculus, UniProt Q07440).
T5 sequence (Q07440 whole entry): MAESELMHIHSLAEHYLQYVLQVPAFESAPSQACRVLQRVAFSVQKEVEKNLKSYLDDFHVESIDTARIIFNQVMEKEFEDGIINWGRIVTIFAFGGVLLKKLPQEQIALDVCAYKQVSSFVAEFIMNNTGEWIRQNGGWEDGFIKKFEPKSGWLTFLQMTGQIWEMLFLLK
The assay can be described thus: Bfl-1 inhibitors blocking BH3 peptide binding, confirmation, biochemical, TR-FRET, mouse Bfl-1 (AID 621). (TR-FRET usually uses a lanthanide donor and a delayed reading to cut background.)

Assay [14] deals with T5, Bcl-2-related protein A1. The assay can be described thus: Bfl-1 inhibitors, primary screen, biochemical, fluorescence polarization, FITC-Bid, mouse (AID 432).
Assay [15] addresses T5, Bcl-2-related protein A1. The assay can be described thus: Bfl-1 binding inhibitors, SAR follow-up, biochemical, fluorescence polarization (AID 1070).
Assay [16] has as its system CHO. The assay can be described thus: cytotoxicity in TLR9-MyD88 CHO cells, dose response, cytotoxicity control for TLR9-MyD88 binding inhibitor project, cell-based, luminescence (AID 588339).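 Further: CHO cells stably coexpressing TLR9 and MyD88 fusions from primary screen; compound exposure lasted 48 hours before viability readout.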 Format: functional, hamster. To be noted: Cricetulus griseus.
A short description of assay [17]: HepG2 cell cytotoxicity, dose response, cytotoxicity control for Shn3 inhibitor project, CellTiter-Glo, cherry-picked (AID 624134). The assay is classed as functional, cell-based.
In assay [18] the target is T6, Replicative DNA helicase DnaB (Mycobacterium tuberculosis, UniProt P9WMR3).
T6 sequence (P9WMR3 whole entry): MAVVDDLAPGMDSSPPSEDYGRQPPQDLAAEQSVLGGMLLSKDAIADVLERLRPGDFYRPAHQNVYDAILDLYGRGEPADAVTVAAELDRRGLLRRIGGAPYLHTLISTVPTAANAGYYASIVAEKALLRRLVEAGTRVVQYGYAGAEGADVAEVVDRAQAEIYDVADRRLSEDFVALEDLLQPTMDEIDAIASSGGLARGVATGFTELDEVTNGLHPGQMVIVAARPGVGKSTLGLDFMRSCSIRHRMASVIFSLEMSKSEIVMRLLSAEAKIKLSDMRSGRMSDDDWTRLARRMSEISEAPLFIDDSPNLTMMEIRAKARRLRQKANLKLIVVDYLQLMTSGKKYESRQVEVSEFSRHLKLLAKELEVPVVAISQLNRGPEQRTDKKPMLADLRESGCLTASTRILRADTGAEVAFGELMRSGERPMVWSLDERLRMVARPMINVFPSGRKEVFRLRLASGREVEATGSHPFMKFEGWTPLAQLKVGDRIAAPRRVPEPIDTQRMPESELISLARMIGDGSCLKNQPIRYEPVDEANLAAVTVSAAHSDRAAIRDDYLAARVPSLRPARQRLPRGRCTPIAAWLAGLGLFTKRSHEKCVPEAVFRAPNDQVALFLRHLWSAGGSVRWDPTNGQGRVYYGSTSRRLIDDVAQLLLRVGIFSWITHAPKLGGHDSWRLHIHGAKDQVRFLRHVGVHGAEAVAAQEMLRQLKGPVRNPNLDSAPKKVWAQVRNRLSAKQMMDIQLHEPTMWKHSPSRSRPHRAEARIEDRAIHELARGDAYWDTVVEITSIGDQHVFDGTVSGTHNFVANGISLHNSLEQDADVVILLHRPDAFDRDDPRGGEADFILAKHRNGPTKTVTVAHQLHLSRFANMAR
The assay can be described thus: DnaB intein splicing inhibitors, dose response, biochemical, cell-free fluorescence (AID 449749). The assay is classed as functional.

For assay [19], the target named is Glyceraldehyde-3-phosphate dehydrogenase (Homo sapiens, UniProt P04406).
Sequence of Glyceraldehyde-3-phosphate dehydrogenase (P04406 whole entry): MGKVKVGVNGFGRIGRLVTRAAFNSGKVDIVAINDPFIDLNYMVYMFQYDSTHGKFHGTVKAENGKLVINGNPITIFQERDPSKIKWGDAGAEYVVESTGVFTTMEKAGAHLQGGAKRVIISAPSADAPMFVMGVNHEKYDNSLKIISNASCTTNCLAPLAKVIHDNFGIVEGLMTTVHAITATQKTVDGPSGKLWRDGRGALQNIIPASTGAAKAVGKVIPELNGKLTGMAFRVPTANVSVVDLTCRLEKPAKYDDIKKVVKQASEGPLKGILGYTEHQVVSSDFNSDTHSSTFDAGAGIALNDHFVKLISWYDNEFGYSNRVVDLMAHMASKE
Assay [20] is described as follows: inhibitors of PGC1a acetylation in cells, dose response, cell-based, cherry-picked samples (AID 720514).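 Further: potency may reflect raised or lowered acetylation signal.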 Format: functional.
The nature of assay [21]: Luminescence Cell-Based Dose Retest to Confirm Inhibitors of Cancer Stem Cells. [Related pubchem assays (depositor defined):AID2717, AID2721]. To be noted: Homo sapiens. Format: functional.
Assay [22] in a line: control 3'UTR Renilla luciferase suppression, dose response, counter-screen for Shn3 inhibitor project, cell-based, Clone20-Shn3RL, cherry-picked (AID 624133). Format: functional.
Assay [23] is described as follows: Shn3 3'UTR reporter inhibitors, dose response, cell-based, Clone20 osteoblasts, firefly luciferase, cherry-picked (AID 624132).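 Further: firefly luciferase luminescence from reporter carrying the Shn3 3'UTR in osteoblasts.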 The assay is classed as functional.
Assay [24] addresses Beta Lactamase (Pseudomonas aeruginosa, UniProt Q932Y6). The assay can be described thus: beta-lactamase reporter inhibitor potency, dose response, artefact control for TLR9-MyD88 binding inhibitor project, BLA reporter cells, FRET fluorescence (AID 588341).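 Further: cell based assay in CHO-K1 cells stably expressing beta-lactamase.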 Format: cell-based.
Assay [25] has as its system INS1. The assay can be described thus: beta cell apoptosis inhibitors, cytokine rescue, dose response, luminescence, retest (AID 449756).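 Further: cell death triggered by IL-1 beta plus TNF-alpha plus IFN-gamma mixture; protective hits raise ATP signal compared with cytokine alone wells.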 Format: functional, cell-based. Conditions: Rattus norvegicus.
The target of assay [26] is T7, Protein RecA (Mycobacterium tuberculosis, UniProt P9WHJ3).
T7 sequence (P9WHJ3 whole entry): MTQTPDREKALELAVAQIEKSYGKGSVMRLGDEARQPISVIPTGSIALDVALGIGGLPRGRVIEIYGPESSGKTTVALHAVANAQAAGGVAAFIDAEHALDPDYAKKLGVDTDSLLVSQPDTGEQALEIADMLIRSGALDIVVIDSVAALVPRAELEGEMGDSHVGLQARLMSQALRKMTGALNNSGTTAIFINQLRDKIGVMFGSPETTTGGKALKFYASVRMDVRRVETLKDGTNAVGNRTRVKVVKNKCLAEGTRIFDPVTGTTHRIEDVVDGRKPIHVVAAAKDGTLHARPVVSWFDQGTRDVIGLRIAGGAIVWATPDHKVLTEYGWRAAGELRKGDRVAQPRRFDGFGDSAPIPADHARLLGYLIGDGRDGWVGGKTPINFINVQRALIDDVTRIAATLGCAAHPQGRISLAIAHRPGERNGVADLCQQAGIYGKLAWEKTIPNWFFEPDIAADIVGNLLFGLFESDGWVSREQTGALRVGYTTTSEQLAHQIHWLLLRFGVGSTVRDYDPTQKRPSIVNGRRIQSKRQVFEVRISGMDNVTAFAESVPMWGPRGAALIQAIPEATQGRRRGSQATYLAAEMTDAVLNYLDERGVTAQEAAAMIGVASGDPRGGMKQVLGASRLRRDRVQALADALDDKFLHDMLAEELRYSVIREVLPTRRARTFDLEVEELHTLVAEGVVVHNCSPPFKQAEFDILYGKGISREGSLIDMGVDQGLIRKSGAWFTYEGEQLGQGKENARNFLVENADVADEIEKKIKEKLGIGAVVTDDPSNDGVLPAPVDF
The assay is described as follows: Fluorescence Cell-Free Homogeneous Dose Retest to Identify Inhibitors of RecA-Intein Splicing Activity. [Related pubchem assays (depositor defined):AID2097, AID2223, AID489010, AID492950]. Format: functional.

Where “and” joins values, the source holds several entries; their conditions need not be identical. Identical values can stand only once. Calls of active or inactive are those of the source. Some results are limits rather than exact numbers.

Sequence of Peroxisome proliferator-activated receptor gamma/Nuclear receptor coactivator 1 (P37231 whole entry): as the sequence (P37231 whole entry) above
Sequence of Peroxisome proliferator-activated receptor gamma/Nuclear receptor coactivator 1 (Q15788 whole entry, further chain): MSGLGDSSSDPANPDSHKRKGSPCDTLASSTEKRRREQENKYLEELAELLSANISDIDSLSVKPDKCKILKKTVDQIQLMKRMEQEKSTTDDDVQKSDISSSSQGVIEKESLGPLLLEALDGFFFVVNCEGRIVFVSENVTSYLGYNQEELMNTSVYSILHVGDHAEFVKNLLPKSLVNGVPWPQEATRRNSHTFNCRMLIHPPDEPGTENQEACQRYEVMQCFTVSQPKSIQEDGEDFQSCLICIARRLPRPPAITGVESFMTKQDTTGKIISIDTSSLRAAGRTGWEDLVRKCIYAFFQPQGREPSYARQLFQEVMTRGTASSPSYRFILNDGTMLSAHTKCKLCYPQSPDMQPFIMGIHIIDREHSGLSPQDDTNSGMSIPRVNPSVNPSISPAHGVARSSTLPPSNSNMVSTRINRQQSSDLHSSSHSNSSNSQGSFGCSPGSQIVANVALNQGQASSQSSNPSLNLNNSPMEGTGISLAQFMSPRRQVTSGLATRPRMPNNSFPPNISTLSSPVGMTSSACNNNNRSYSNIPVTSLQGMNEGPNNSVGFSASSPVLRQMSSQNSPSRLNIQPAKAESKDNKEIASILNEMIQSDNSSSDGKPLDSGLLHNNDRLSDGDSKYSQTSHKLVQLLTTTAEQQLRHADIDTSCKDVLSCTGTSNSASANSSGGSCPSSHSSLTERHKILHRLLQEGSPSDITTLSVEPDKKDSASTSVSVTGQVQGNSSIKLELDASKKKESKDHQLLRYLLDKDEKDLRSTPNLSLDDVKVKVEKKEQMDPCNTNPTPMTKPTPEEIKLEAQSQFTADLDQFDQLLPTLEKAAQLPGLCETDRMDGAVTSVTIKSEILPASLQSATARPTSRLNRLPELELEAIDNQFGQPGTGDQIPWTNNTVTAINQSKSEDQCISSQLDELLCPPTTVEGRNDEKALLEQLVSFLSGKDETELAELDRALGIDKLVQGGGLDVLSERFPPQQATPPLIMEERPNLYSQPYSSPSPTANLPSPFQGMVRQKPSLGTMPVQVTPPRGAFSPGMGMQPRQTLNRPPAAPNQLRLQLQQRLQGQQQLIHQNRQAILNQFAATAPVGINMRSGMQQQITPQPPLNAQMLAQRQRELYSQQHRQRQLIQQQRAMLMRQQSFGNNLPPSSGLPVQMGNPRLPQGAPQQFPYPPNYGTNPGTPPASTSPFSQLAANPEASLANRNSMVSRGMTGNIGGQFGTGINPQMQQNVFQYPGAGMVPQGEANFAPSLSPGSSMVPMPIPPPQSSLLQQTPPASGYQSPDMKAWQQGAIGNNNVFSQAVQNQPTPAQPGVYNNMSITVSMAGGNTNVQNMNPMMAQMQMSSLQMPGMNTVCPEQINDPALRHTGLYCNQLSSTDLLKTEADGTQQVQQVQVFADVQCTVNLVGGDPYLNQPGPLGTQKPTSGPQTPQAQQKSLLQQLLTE

One may read the EC50 as the midpoint of the concentration-response curve. For orientation: IC50 means the concentration that inhibits the measured activity by half. `Cn1c(C(=O)NCc2ccco2)cc2c(=O)[nH]c3ccccc3c21`: the EC50 in [1], in [2] and in assay [4] was > 79.4 µM (not active) throughout. Moreover, in assay [3], the concentration for half-maximal inhibition (IC50) is 31.4 µM (not active).

In the case of `Cc1ccc(-c2ccc(S(=O)(=O)NCC3CCCO3)cc2)cc1` (stereo unspecified), the IC50 in assay [5] was 7.7 µM (active).

Take `COC(=O)c1ccccc1NC(=O)c1noc2c1CCC2`: the IC50 in assay [6] is 9.45 µM (not active); in assay [7], 2.33 µM (active); in assay [8] it was 2.18 µM (active); in assay [9] it was 13.5 µM (not active); in assay [10], > 109 µM (not active); in assay [11], 16.5 µM (active). Besides, in [12], the IC50 was > 10 µM (not active).

A word on the AC50: it is the concentration at which the activity in the assay is half-maximal. In the case of `CCOC(=O)CS(=O)(=O)c1nc(-c2ccccc2)cc(C(F)(F)F)n1`, the IC50 in assay [13] was 4.63 µM (active) and 1.18 µM (active); in assay [14] it was 3.72 µM (active); in assay [15], 5.36 µM (active); in assay [16], 4.43 µM (active); in assay [19], > 100 µM (not active); in [24] it was 19.2 µM (inactive). Also, the AC50 in assay [17] is 12.9 µM (active); in assay [18], 2.9 µM (active); in assay [20] it was 6.64 µM (active); in assay [21], 2.77 µM (active); in assay [22] it was 6.93 µM (active); in assay [23], 3.42 µM (active). Further, in assay [25], the AC50 is 7.22 µM (active). For the same compound, the EC50 in assay [26] was 4.15 µM (active).
